Experimental data reported in the CheMixHub viscosity set.
± gives the uncertainty stated by the source.

Test: xn = mol fraction of the nth substance listed
Conditions: 101 kPa

CC(N)CN (stereo not given) + O
viscosity (298.15 K, x1 = 0.0997): 6.527 ± 0.086 mPa·s | viscosity (298.15 K, x1 = 0.2002): 9.458 ± 0.12 mPa·s | viscosity (298.15 K, x1 = 0.2998): 10.24 ± 0.13 mPa·s | viscosity (298.15 K, x1 = 0.3995): 9.546 ± 0.13 mPa·s | viscosity (298.15 K, x1 = 0.4957): 8.037 ± 0.11 mPa·s | viscosity (298.15 K, x1 = 0.6024): 6.005 ± 0.091 mPa·s | viscosity (298.15 K, x1 = 0.694): 4.35 ± 0.071 mPa·s | viscosity (298.15 K, x1 = 0.7949): 2.882 ± 0.049 mPa·s | viscosity (298.15 K, x1 = 0.8901): 1.975 ± 0.035 mPa·s | viscosity (303.15 K, x1 = 0.0997): 5.479 ± 0.078 mPa·s | viscosity (303.15 K, x1 = 0.0998): 3.004 ± 0.019 mPa·s | viscosity (303.15 K, x1 = 0.1997): 6.596 ± 0.04 mPa·s | viscosity (303.15 K, x1 = 0.2002): 7.901 ± 0.1 mPa·s | viscosity (303.15 K, x1 = 0.2522): 7.702 ± 0.048 mPa·s | viscosity (303.15 K, x1 = 0.2992): 8.043 ± 0.051 mPa·s | viscosity (303.15 K, x1 = 0.2998): 8.542 ± 0.11 mPa·s | viscosity (303.15 K, x1 = 0.3412): 7.793 ± 0.052 mPa·s | viscosity (303.15 K, x1 = 0.3995): 7.939 ± 0.11 mPa·s | viscosity (303.15 K, x1 = 0.4012): 7.095 ± 0.05 mPa·s | viscosity (303.15 K, x1 = 0.4957): 6.649 ± 0.097 mPa·s | viscosity (303.15 K, x1 = 0.5022): 5.538 ± 0.043 mPa·s | viscosity (303.15 K, x1 = 0.6011): 3.921 ± 0.034 mPa·s | viscosity (303.15 K, x1 = 0.6024): 4.915 ± 0.078 mPa·s | viscosity (303.15 K, x1 = 0.6913): 2.844 ± 0.026 mPa·s | viscosity (303.15 K, x1 = 0.694): 3.566 ± 0.058 mPa·s | viscosity (303.15 K, x1 = 0.7912): 2.119 ± 0.021 mPa·s | viscosity (303.15 K, x1 = 0.7949): 2.425 ± 0.041 mPa·s | viscosity (303.15 K, x1 = 0.8901): 1.752 ± 0.031 mPa·s | viscosity (303.15 K, x1 = 0.8998): 1.689 ± 0.018 mPa·s | viscosity (308.15 K, x1 = 0.0997): 4.625 ± 0.067 mPa·s | viscosity (308.15 K, x1 = 0.0998): 2.529 ± 0.016 mPa·s | viscosity (308.15 K, x1 = 0.1997): 5.258 ± 0.034 mPa·s | viscosity (308.15 K, x1 = 0.2002): 6.605 ± 0.091 mPa·s | viscosity (308.15 K, x1 = 0.2522): 6.095 ± 0.04 mPa·s | viscosity (308.15 K, x1 = 0.2992): 6.383 ± 0.043 mPa·s | viscosity (308.15 K, x1 = 0.2998): 7.121 ± 0.098 mPa·s | viscosity (308.15 K, x1 = 0.3412): 6.196 ± 0.043 mPa·s | viscosity (308.15 K, x1 = 0.3995): 6.633 ± 0.094 mPa·s | viscosity (308.15 K, x1 = 0.4012): 5.678 ± 0.041 mPa·s | viscosity (308.15 K, x1 = 0.4957): 5.591 ± 0.084 mPa·s | viscosity (308.15 K, x1 = 0.5022): 4.504 ± 0.036 mPa·s | viscosity (308.15 K, x1 = 0.6011): 3.288 ± 0.028 mPa·s | viscosity (308.15 K, x1 = 0.6024): 4.178 ± 0.066 mPa·s | viscosity (308.15 K, x1 = 0.6913): 2.443 ± 0.023 mPa·s | viscosity (308.15 K, x1 = 0.694): 3.067 ± 0.05 mPa·s | viscosity (308.15 K, x1 = 0.7912): 1.854 ± 0.019 mPa·s | viscosity (308.15 K, x1 = 0.7949): 2.098 ± 0.036 mPa·s | viscosity (308.15 K, x1 = 0.8901): 1.508 ± 0.027 mPa·s | viscosity (308.15 K, x1 = 0.8998): 1.501 ± 0.017 mPa·s | viscosity (313.15 K, x1 = 0.0997): 3.878 ± 0.057 mPa·s | viscosity (313.15 K, x1 = 0.0998): 2.154 ± 0.014 mPa·s | viscosity (313.15 K, x1 = 0.1997): 4.287 ± 0.028 mPa·s | viscosity (313.15 K, x1 = 0.2002): 5.522 ± 0.079 mPa·s | viscosity (313.15 K, x1 = 0.2522): 4.913 ± 0.033 mPa·s | viscosity (313.15 K, x1 = 0.2992): 5.139 ± 0.035 mPa·s | viscosity (313.15 K, x1 = 0.2998): 5.956 ± 0.085 mPa·s | viscosity (313.15 K, x1 = 0.3412): 5.033 ± 0.035 mPa·s | viscosity (313.15 K, x1 = 0.3995): 5.555 ± 0.082 mPa·s | viscosity (313.15 K, x1 = 0.4012): 4.69 ± 0.03 mPa·s | viscosity (313.15 K, x1 = 0.4957): 4.69 ± 0.072 mPa·s | viscosity (313.15 K, x1 = 0.5022): 3.734 ± 0.03 mPa·s | viscosity (313.15 K, x1 = 0.6011): 2.792 ± 0.024 mPa·s | viscosity (313.15 K, x1 = 0.6024): 3.516 ± 0.056 mPa·s | viscosity (313.15 K, x1 = 0.6913): 2.113 ± 0.02 mPa·s | viscosity (313.15 K, x1 = 0.694): 2.603 ± 0.043 mPa·s | viscosity (313.15 K, x1 = 0.7912): 1.634 ± 0.017 mPa·s | viscosity (313.15 K, x1 = 0.7949): 1.814 ± 0.031 mPa·s | viscosity (313.15 K, x1 = 0.8901): 1.337 ± 0.024 mPa·s | viscosity (313.15 K, x1 = 0.8998): 1.312 ± 0.014 mPa·s | viscosity (318.15 K, x1 = 0.0997): 3.237 ± 0.051 mPa·s | viscosity (318.15 K, x1 = 0.0998): 1.855 ± 0.012 mPa·s | viscosity (318.15 K, x1 = 0.1997): 3.559 ± 0.023 mPa·s | viscosity (318.15 K, x1 = 0.2002): 4.611 ± 0.07 mPa·s | viscosity (318.15 K, x1 = 0.2522): 4.041 ± 0.027 mPa·s | viscosity (318.15 K, x1 = 0.2992): 4.211 ± 0.029 mPa·s | viscosity (318.15 K, x1 = 0.2998): 4.993 ± 0.076 mPa·s | viscosity (318.15 K, x1 = 0.3412): 4.11 ± 0.029 mPa·s | viscosity (318.15 K, x1 = 0.3995): 4.676 ± 0.072 mPa·s | viscosity (318.15 K, x1 = 0.4012): 3.823 ± 0.028 mPa·s | viscosity (318.15 K, x1 = 0.4957): 3.961 ± 0.062 mPa·s | viscosity (318.15 K, x1 = 0.5022): 3.14 ± 0.025 mPa·s | viscosity (318.15 K, x1 = 0.6011): 2.395 ± 0.021 mPa·s | viscosity (318.15 K, x1 = 0.6024): 2.983 ± 0.048 mPa·s | viscosity (318.15 K, x1 = 0.6913): 1.85 ± 0.017 mPa·s | viscosity (318.15 K, x1 = 0.694): 2.23 ± 0.037 mPa·s | viscosity (318.15 K, x1 = 0.7912): 1.45 ± 0.015 mPa·s | viscosity (318.15 K, x1 = 0.7949): 1.585 ± 0.027 mPa·s | viscosity (318.15 K, x1 = 0.8901): 1.199 ± 0.022 mPa·s | viscosity (318.15 K, x1 = 0.8998): 1.216 ± 0.013 mPa·s | viscosity (323.15 K, x1 = 0.0998): 1.625 ± 0.01 mPa·s | viscosity (323.15 K, x1 = 0.1997): 2.977 ± 0.02 mPa·s | viscosity (323.15 K, x1 = 0.2522): 3.365 ± 0.023 mPa·s | viscosity (323.15 K, x1 = 0.2992): 3.495 ± 0.024 mPa·s | viscosity (323.15 K, x1 = 0.3412): 3.452 ± 0.025 mPa·s | viscosity (323.15 K, x1 = 0.4012): 3.204 ± 0.024 mPa·s | viscosity (323.15 K, x1 = 0.5022): 2.671 ± 0.021 mPa·s | viscosity (323.15 K, x1 = 0.6011): 2.08 ± 0.018 mPa·s | viscosity (323.15 K, x1 = 0.6913): 1.632 ± 0.015 mPa·s | viscosity (323.15 K, x1 = 0.7912): 1.302 ± 0.013 mPa·s | viscosity (323.15 K, x1 = 0.8998): 1.101 ± 0.012 mPa·s
